# Experiments:
# stem cell migration = settings: cited from earlier work
# [1] = system: Human CD34+ hematopoietic progenitor cells; test: In vitro Transwell migration of human CD34+ cells towards an SDF-1 gradient; assay type: cell-based
# Description: Human CD34+ hematopoietic progenitor cells were isolated from G-CSF mobilized peripheral blood and incubated with varying concentrations (0.1 μM, 1.0 μM and 10 μM) of the pyrimidine-based BTK inhibitor 1-[(3R)-3-[4-amino-3-(4-phenoxyphenyl)pyrazolo[3,4-d]pyrimidin-1-yl]piperidin-1-yl]prop-2-en-1-one for one hour at 37° C., 5% CO2 in serum free media (0.5% bovine serum albumin in RPMI media). Cells were then transferred to the upper chamber of a Transwell migration plate (5.0 um pore size, Costar Inc.). The lower chamber contained only serum-free media with 100 ng/ml SDF-1. Cells were incubated for five hours at 37° C., 5% CO2 to allow for cell migration from the upper chamber to the lower chamber. Cells that migrated into the lower chamber were counted using a hemocytometer.
Structure (SMILES),concentration reported for activity in similar assays (stem cell migration),"inhibition of stem cell migration ([1]; 0.1 μM, 1.0 μM and 10 μM, one hour preincubation, five hours migration to 100 ng/ml SDF-1, FIG. 1)",activity at lower concentration than reported for plerixafor ([1]; versus plerixafor (50 μM) in similar assays)
c1cc(CN2CCCNCCNCCCNCC2)ccc1CN1CCCNCCNCCCNCC1 [plerixafor],50 µM,,
"C=CC(=O)N1CCC[C@@H](n2nc(-c3ccc(Oc4ccccc4)cc3)c3c(N)ncnc32)C1 [Btk inhibitor, 1-[(3R)-3-[4-amino-3-(4-phenoxyphenyl)pyrazolo[3,4-d]pyrimidin-1-yl]piperidin-1-yl]prop-2-en-1-one]",,inhibition of stem cell migration was seen at all tested concentrations,500 fold

# From patent US9522917B2, “Bruton's tyrosine kinase inhibitors for hematopoietic mobilization” (Acerta Pharma B.V., priority 2012, dated 2016)
